Literature values as cited in patent publication US5693668A, “Acetylcholinesterase inhibitors” (priority 1989, dated 1997).

Conditions: Bronaugh and Stewart, J. Pharm. Sci. 1984; cited from earlier work

Substance: polyethylene glycol 20 Oleyl ether [PEG 20 oleyl ether]
- effect on integrity or permeation characteristics of the skin: not found to affect the integrity or the permeation characteristics of the skin
